Laboratory results published in patent US11000033B2, “Ketone or oxime compound, and herbicide” (NISSAN CHEMICAL CORPORATION, priority 2014, dated 2021).

What was measured:
Monochoria vaginalis = test: Test Example 1: herbicidal activity, application before weed generation in submerged conditions (symbol C); assay type: in vivo; settings: application herbicide amount 320 g/ha
In short: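 Paddy pre-emergence test. Formulated emulsion, water-diluted to a predetermined rate, is applied to floodwater on sowing day; rice transplanted at 2.5 leaves. Effect read at 3 weeks on a 0–5 herbicidal-ratio scale.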

Alopecurus myosuroides = test: Test Example 4: herbicidal effect by soil treatment (symbol J); assay type: in vivo; settings: application herbicide amount 320 g/ha
In short: (§1)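 Seeds were sown in sterilized diluvial soil, covered with about 1.5 cm of soil, and the soil surface was sprayed with a water-diluted emulsion of the compound at a predetermined rate. Plants grew in a greenhouse at 25° C. to 30° C.; effects were scored visually 3 weeks after application.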

Abutilon theophrasti = test: Test Example 4: herbicidal effect by soil treatment (symbol M); assay type: in vivo; settings: application herbicide amount 320 g/ha
In short: as §1

Row | Structure (SMILES) | Herbicidal effect grade, C: Monochoria vaginalis (Monochoria vaginalis) | J: Alopecurus myosuroides, herbicidal effect grade (Alopecurus myosuroides) | M: Abutilon theophrasti, herbicidal effect grade (Abutilon theophrasti) | melting point
1 | CCOC(=O)C(C(=O)c1ccccn1)C1CC(O)=C(c2c(C)cc(C)cc2C)C1=O (centres unmarked) [2-013] | 0 (Herbicidal ratio of 5% or lower (almost no effect)) | 0 (Herbicidal ratio of 5% or lower (almost no effect)) | 0 (Herbicidal ratio of 5% or lower (almost no effect)) | 
2 | COC(=O)C(C(=O)C1CC1)C1CC(O)=C(c2c(C)cc(C)cc2C)C1=O (centres unmarked) [2-014] | 1 (Herbicidal ratio of 5% or higher and lower than 20%) | 2 (Herbicidal ratio of 20% or higher and lower than 40%) | 0 (Herbicidal ratio of 5% or lower (almost no effect)) | 
3 | Cc1cc(C)c(C2=C(O)CC(CC(=O)Cc3ccccc3)C2=O)c(C)c1 (centres unmarked) [2-015] | 0 (Herbicidal ratio of 5% or lower (almost no effect)) | 2 (Herbicidal ratio of 20% or higher and lower than 40%) | 0 (Herbicidal ratio of 5% or lower (almost no effect)) | 
4 | Cc1cc(C)c(C2=C(O)CC(CC(=O)C(C)C)C2=O)c(C)c1 (centres unmarked) [2-016] | 0 (Herbicidal ratio of 5% or lower (almost no effect)) | 4 (Herbicidal ratio of 70% or higher and lower than 90%) | 0 (Herbicidal ratio of 5% or lower (almost no effect)) | 
5 | Cc1cc(C)c(C2=C(O)CC(CC(=O)C3CC3)C2=O)c(C)c1 (centres unmarked) [2-017] | 3 (Herbicidal ratio of 40% or higher and lower than 70%) | 3 (Herbicidal ratio of 40% or higher and lower than 70%) | 4 (Herbicidal ratio of 70% or higher and lower than 90%) | 
6 | CC(=O)CC1CC(OC(=O)C(C)(C)C)=C(c2c(C)cc(C)cc2C)C1=O (centres unmarked) [2-018] | 1 (Herbicidal ratio of 5% or higher and lower than 20%) | 3 (Herbicidal ratio of 40% or higher and lower than 70%) | 4 (Herbicidal ratio of 70% or higher and lower than 90%) | 
7 | CCCC(=O)C(C(=O)OC)C1CC(O)=C(c2c(C)cc(C)cc2C)C1=O (centres unmarked) [2-020] | 0 (Herbicidal ratio of 5% or lower (almost no effect)) | 0 (Herbicidal ratio of 5% or lower (almost no effect)) | 0 (Herbicidal ratio of 5% or lower (almost no effect)) | 
8 | CCCC(=O)CC1CC(O)=C(c2c(C)cc(C)cc2C)C1=O (centres unmarked) [2-021] | 2 (Herbicidal ratio of 20% or higher and lower than 40%) | 5 (Herbicidal ratio of 90% or more (almost completely withered)) | 1 (Herbicidal ratio of 5% or higher and lower than 20%) | 
9 | Cc1cc(C)c(C2=C(O)CC(CC(=O)C(C)(C)C)C2=O)c(C)c1 (centres unmarked) [2-022] | 0 (Herbicidal ratio of 5% or lower (almost no effect)) | 0 (Herbicidal ratio of 5% or lower (almost no effect)) | 0 (Herbicidal ratio of 5% or lower (almost no effect)) | 
10 | CCC(C)C(=O)CC1CC(O)=C(c2c(C)cc(C)cc2C)C1=O (centres unmarked) [2-024] | 0 (Herbicidal ratio of 5% or lower (almost no effect)) | 0 (Herbicidal ratio of 5% or lower (almost no effect)) | 0 (Herbicidal ratio of 5% or lower (almost no effect)) | 
11 | CCOC(=O)C(C(=O)CC1CC1)C1CC(O)=C(c2c(C)cc(C)cc2C)C1=O (centres unmarked) [2-025] | 0 (Herbicidal ratio of 5% or lower (almost no effect)) | 0 (Herbicidal ratio of 5% or lower (almost no effect)) | 0 (Herbicidal ratio of 5% or lower (almost no effect)) | 
12 | Cc1cc(C)c(C2=C(O)CC(CC(=O)CC3CC3)C2=O)c(C)c1 (centres unmarked) [2-026] | 0 (Herbicidal ratio of 5% or lower (almost no effect)) | 3 (Herbicidal ratio of 40% or higher and lower than 70%) | 0 (Herbicidal ratio of 5% or lower (almost no effect)) | 
13 | Cc1cc(C)c(C2=C(O)CC(CC(=O)C3CCCC3)C2=O)c(C)c1 (centres unmarked) [2-028] | 0 (Herbicidal ratio of 5% or lower (almost no effect)) | 3 (Herbicidal ratio of 40% or higher and lower than 70%) | 1 (Herbicidal ratio of 5% or higher and lower than 20%) | 
14 | Cc1cc(C)c(C2=C(O)CC(CC(=O)C3CCCCC3)C2=O)c(C)c1 (centres unmarked) [2-030] | 0 (Herbicidal ratio of 5% or lower (almost no effect)) | 3 (Herbicidal ratio of 40% or higher and lower than 70%) | 0 (Herbicidal ratio of 5% or lower (almost no effect)) | 
15 | C=CC(=O)CC1CC(O)=C(c2c(C)cc(C)cc2C)C1=O (centres unmarked) [2-031] | 2 (Herbicidal ratio of 20% or higher and lower than 40%) | 3 (Herbicidal ratio of 40% or higher and lower than 70%) | 1 (Herbicidal ratio of 5% or higher and lower than 20%) | 
16 | Cc1cc(C)c(C2=C(O)CC(CC(=O)c3ccc(F)cc3)C2=O)c(C)c1 (centres unmarked) [2-032] | 1 (Herbicidal ratio of 5% or higher and lower than 20%) | 5 (Herbicidal ratio of 90% or more (almost completely withered)) | 0 (Herbicidal ratio of 5% or lower (almost no effect)) | 
17 | CCC(=O)CCC1CC(O)=C(c2c(C)cc(C)cc2C)C1=O (centres unmarked) [5-001] | 0 (Herbicidal ratio of 5% or lower (almost no effect)) | 2 (Herbicidal ratio of 20% or higher and lower than 40%) | 0 (Herbicidal ratio of 5% or lower (almost no effect)) | 
18 | CCC(=O)CCC1CC(OC)=C(c2c(C)cc(C)cc2C)C1=O (centres unmarked) [5-002] | 0 (Herbicidal ratio of 5% or lower (almost no effect)) | 0 (Herbicidal ratio of 5% or lower (almost no effect)) | 0 (Herbicidal ratio of 5% or lower (almost no effect)) | 
19 | CCc1cc(Br)cc(C)c1C1=C(O)CC(CC(C)=NOC)C1=O (centres unmarked) [6-001] | 0 (Herbicidal ratio of 5% or lower (almost no effect)) | 5 (Herbicidal ratio of 90% or more (almost completely withered)) | 0 (Herbicidal ratio of 5% or lower (almost no effect)) | 151 to 153 °C
20 | CCc1cc(Br)cc(C)c1C1=C(O)CC(C(C(=O)OC)C(C)=NOC)C1=O (centres unmarked) [6-002] | 0 (Herbicidal ratio of 5% or lower (almost no effect)) | 2 (Herbicidal ratio of 20% or higher and lower than 40%) | 0 (Herbicidal ratio of 5% or lower (almost no effect)) | 184 to 188 °C
21 | CON=C(C)CC1CC(O)=C(c2c(C)cc(Br)cc2C)C1=O (centres unmarked) [6-003] | 1 (Herbicidal ratio of 5% or higher and lower than 20%) | 5 (Herbicidal ratio of 90% or more (almost completely withered)) | 5 (Herbicidal ratio of 90% or more (almost completely withered)) | 164 to 166 °C
22 | CCc1cc(C)cc(C)c1C1=C(O)CC(CC(C)=NOC)C1=O (centres unmarked) [6-007] | 1 (Herbicidal ratio of 5% or higher and lower than 20%) | 5 (Herbicidal ratio of 90% or more (almost completely withered)) | 4 (Herbicidal ratio of 70% or higher and lower than 90%) | 122 to 125 °C
23 | CON=C(C)CC1CC(O)=C(c2c(C)cc(-c3ccccc3)cc2C)C1=O (centres unmarked) [6-015] | 5 (Herbicidal ratio of 90% or more (almost completely withered)) | 5 (Herbicidal ratio of 90% or more (almost completely withered)) | 3 (Herbicidal ratio of 40% or higher and lower than 70%) | 167 to 169 °C
24 | CON=C(C)CC1CC(O)=C(c2c(C)cc(C(=O)OC)cc2C)C1=O (centres unmarked) [6-023] | 0 (Herbicidal ratio of 5% or lower (almost no effect)) | 4 (Herbicidal ratio of 70% or higher and lower than 90%) | 0 (Herbicidal ratio of 5% or lower (almost no effect)) | 
25 | CON=C(C)CC1CC(O)=C(c2c(C)cc(C(C)=O)cc2C)C1=O (centres unmarked) [6-026] | 0 (Herbicidal ratio of 5% or lower (almost no effect)) | 1 (Herbicidal ratio of 5% or higher and lower than 20%) | 0 (Herbicidal ratio of 5% or lower (almost no effect)) | 
26 | CON=C(C)CC1CC(O)=C(c2c(C)cc(C)cc2OC)C1=O (centres unmarked) [6-037, 3-hydroxy-2-(2-methoxy-4,6-dimethylphenyl)-5-{2-(methoxyimino)propyl}cyclopent-2-enone] | 4 (Herbicidal ratio of 70% or higher and lower than 90%) | 5 (Herbicidal ratio of 90% or more (almost completely withered)) | 5 (Herbicidal ratio of 90% or more (almost completely withered)) | 
27 | CON=C(C)CC1CC(O)=C(c2c(C)cc(C)cc2Br)C1=O (centres unmarked) [6-038] | 3 (Herbicidal ratio of 40% or higher and lower than 70%) | 5 (Herbicidal ratio of 90% or more (almost completely withered)) | 5 (Herbicidal ratio of 90% or more (almost completely withered)) | 
